According to PubChem BioAssay (NCI):
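Method: 48-hour compound exposure of cells in 96-well plates, five concentrations, linear interpolation of endpoints. GI50 = concentration required for 50% inhibition of growth. TGI marks complete inhibition of growth.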

Columns and labels:
Experiment in all cases: NCI tumour cell line growth inhibition, 48 h
786-0 renal = system: 786-0 renal
A498 renal = system: A498 renal
A549 NSCLC = system: A549 NSCLC
ACHN renal = system: ACHN renal
BT-549 breast = system: BT-549 breast
CAKI-1 renal = system: CAKI-1 renal
CCRF-CEM leukemia = system: CCRF-CEM leukemia
COLO 205 colon = system: COLO 205 colon
DU-145 prostate = system: DU-145 prostate
EKVX NSCLC = system: EKVX NSCLC
HCC-2998 colon = system: HCC-2998 colon
HCT-116 colon = system: HCT-116 colon
HCT-15 colon = system: HCT-15 colon
HL-60(TB) leukemia = system: HL-60(TB) leukemia
HOP-62 NSCLC = system: HOP-62 NSCLC
HOP-92 NSCLC = system: HOP-92 NSCLC
HS 578T breast = system: HS 578T breast
HT29 colon = system: HT29 colon
IGROV1 ovarian = system: IGROV1 ovarian
K-562 leukemia = system: K-562 leukemia
KM12 colon = system: KM12 colon
LOX IMVI melanoma = system: LOX IMVI melanoma
M14 melanoma = system: M14 melanoma
MALME-3M melanoma = system: MALME-3M melanoma
MCF7 breast = system: MCF7 breast
MDA-MB-231 breast = system: MDA-MB-231 breast
MDA-MB-435 = system: MDA-MB-435
MOLT-4 leukemia = system: MOLT-4 leukemia
NCI-H226 lung = system: NCI-H226 lung
NCI-H23 lung = system: NCI-H23 lung
NCI-H460 lung = system: NCI-H460 lung
NCI-H522 lung = system: NCI-H522 lung
NCI/ADR-RES ovarian = system: NCI/ADR-RES ovarian
OVCAR-3 ovarian = system: OVCAR-3 ovarian
OVCAR-4 ovarian = system: OVCAR-4 ovarian
OVCAR-5 ovarian = system: OVCAR-5 ovarian
OVCAR-8 ovarian = system: OVCAR-8 ovarian
PC-3 prostate = system: PC-3 prostate
RPMI-8226 leukemia = system: RPMI-8226 leukemia
RXF 393 renal = system: RXF 393 renal
SF-268 CNS = system: SF-268 CNS
SF-295 CNS = system: SF-295 CNS
SF-539 CNS = system: SF-539 CNS
SK-MEL-2 melanoma = system: SK-MEL-2 melanoma
SK-MEL-28 melanoma = system: SK-MEL-28 melanoma
SK-MEL-5 melanoma = system: SK-MEL-5 melanoma
SK-OV-3 ovarian = system: SK-OV-3 ovarian
SN12C renal = system: SN12C renal
SNB-19 CNS = system: SNB-19 CNS
SNB-75 CNS = system: SNB-75 CNS
SR leukemia = system: SR leukemia
SW-620 colon = system: SW-620 colon
T-47D breast = system: T-47D breast
TK-10 renal = system: TK-10 renal
U251 CNS = system: U251 CNS
UACC-257 melanoma = system: UACC-257 melanoma
UACC-62 melanoma = system: UACC-62 melanoma
UO-31 renal = system: UO-31 renal

## O=C(c1ccccc1)c1c(C(F)(F)F)n([O-])c2cc(C(F)(F)F)ccc2[n+]1=O
786-0 renal
  GI50: 655 nM
  TGI: 1400 nM
A498 renal
  GI50: 2220 nM
  TGI: 5220 nM
A549 NSCLC
  GI50: 1720 nM
  TGI: 3480 nM
ACHN renal
  GI50: 1540 nM
  TGI: 2930 nM
BT-549 breast
  GI50: 910 nM
  TGI: 2270 nM
CAKI-1 renal
  GI50: 491 nM
  TGI: 956 nM
CCRF-CEM leukemia
  GI50: 600 nM
  TGI: 2440 nM
COLO 205 colon
  GI50: 1410 nM
  TGI: 3270 nM
DU-145 prostate
  GI50: 1220 nM
  TGI: 2470 nM
EKVX NSCLC
  GI50: 1730 nM
  TGI: 3420 nM
HCC-2998 colon
  GI50: 1880 nM
  TGI: 3440 nM
HCT-116 colon
  GI50: 951 nM
  TGI: 2360 nM
HCT-15 colon
  GI50: 1600 nM
  TGI: 3240 nM
HL-60(TB) leukemia
  GI50: 550 nM
  TGI: 1580 nM
HOP-62 NSCLC
  GI50: 1830 nM
  TGI: 3500 nM
HOP-92 NSCLC
  GI50: 1510 nM
  TGI: 2950 nM
HS 578T breast
  GI50: 1800 nM
  TGI: 4290 nM
HT29 colon
  GI50: 983 nM
  TGI: 2860 nM
IGROV1 ovarian
  GI50: 207 nM
  TGI: 489 nM
K-562 leukemia
  GI50: 231 nM
  TGI: 559 nM
KM12 colon
  GI50: 1600 nM
  TGI: 3170 nM
LOX IMVI melanoma
  GI50: 258 nM
  TGI: 745 nM
M14 melanoma
  GI50: 1680 nM
  TGI: 3170 nM
MALME-3M melanoma
  GI50: 1600 nM
  TGI: 3330 nM
MCF7 breast
  GI50: 1420 nM
  TGI: 3290 nM
MDA-MB-231 breast
  GI50: 1600 nM
  TGI: 3110 nM
MDA-MB-435
  GI50: 1600 nM
  TGI: 3020 nM
MOLT-4 leukemia
  GI50: 600 nM
  TGI: 2290 nM
NCI-H226 lung
  GI50: 1830 nM
  TGI: 4010 nM
NCI-H23 lung
  GI50: 1540 nM
  TGI: 4900 nM
NCI-H460 lung
  GI50: 1680 nM
  TGI: 3420 nM
NCI-H522 lung
  GI50: 1230 nM
  TGI: 2720 nM
NCI/ADR-RES ovarian
  GI50: 2010 nM
  TGI: 5120 nM
OVCAR-3 ovarian
  GI50: 1610 nM
  TGI: 3110 nM
OVCAR-4 ovarian
  GI50: 1190 nM
  TGI: 2890 nM
OVCAR-5 ovarian
  GI50: 1990 nM
  TGI: 5540 nM
OVCAR-8 ovarian
  GI50: 1870 nM
  TGI: 5460 nM
PC-3 prostate
  GI50: 1190 nM
  TGI: 2540 nM
RPMI-8226 leukemia
  GI50: 1490 nM
  TGI: 3750 nM
RXF 393 renal
  GI50: 1340 nM
  TGI: 2920 nM
SF-268 CNS
  GI50: 1580 nM
  TGI: 3140 nM
SF-295 CNS
  GI50: 1570 nM
  TGI: 2970 nM
SF-539 CNS
  GI50: 1740 nM
  TGI: 3170 nM
SK-MEL-2 melanoma
  GI50: 2090 nM
  TGI: 3930 nM
SK-MEL-28 melanoma
  GI50: 1710 nM
  TGI: 3230 nM
SK-MEL-5 melanoma
  GI50: 1690 nM
  TGI: 3240 nM
SK-OV-3 ovarian
  GI50: 1770 nM
  TGI: 3210 nM
SN12C renal
  GI50: 1830 nM
  TGI: 4400 nM
SNB-19 CNS
  GI50: 1890 nM
  TGI: 3460 nM
SNB-75 CNS
  GI50: 1630 nM
  TGI: 3050 nM
SR leukemia
  GI50: 1170 nM
  TGI: 3530 nM
SW-620 colon
  GI50: 619 nM
  TGI: 1690 nM
T-47D breast
  GI50: 1460 nM
  TGI: 3380 nM
TK-10 renal
  GI50: 1750 nM
  TGI: 3180 nM
U251 CNS
  GI50: 1540 nM
  TGI: 2970 nM
UACC-257 melanoma
  GI50: 1710 nM
  TGI: 3350 nM
UACC-62 melanoma
  GI50: 1730 nM
  TGI: 3320 nM
UO-31 renal
  GI50: 1320 nM
  TGI: 2670 nM
